Measurements as given in the Kinase Knowledgebase extract (Sharma et al. 2016).

biological target: MAPK14 (UniProt Q16539); experiment: Assessment of MAPK14 Kinase Activity Using Spectrophotometric Assay; conditions: not given
Sequence (Q16539 whole entry, looked up): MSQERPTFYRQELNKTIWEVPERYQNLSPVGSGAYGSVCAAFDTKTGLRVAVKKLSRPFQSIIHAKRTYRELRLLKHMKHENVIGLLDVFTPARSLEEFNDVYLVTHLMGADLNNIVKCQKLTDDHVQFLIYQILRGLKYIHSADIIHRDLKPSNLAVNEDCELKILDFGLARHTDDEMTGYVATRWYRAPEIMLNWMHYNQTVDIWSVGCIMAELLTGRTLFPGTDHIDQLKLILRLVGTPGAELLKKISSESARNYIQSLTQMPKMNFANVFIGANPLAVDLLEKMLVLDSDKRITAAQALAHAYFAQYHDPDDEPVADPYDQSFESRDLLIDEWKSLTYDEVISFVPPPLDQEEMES

First: COc1cccc(-n2nc(C(C)(C)C)cc2NC(=O)Nc2cccc(Br)c2)c1
Second: CC(C)(C)c1cc(NC(=O)Nc2cccc(Cl)c2)n(-c2cccc(CN)c2)n1
The IC50 of the first is 3.2-fold higher: 354 nM for the first, 110 nM for the second. The second is the more potent here.

Going from `O=C(O)CCc1ccc(-n2nc(-c3cccs3)cc2NC(=O)Nc2cccc(Cl)c2Cl)cc1` to `CC(C)(C)c1cc(NC(=O)Nc2cccc(Cl)c2Cl)n(-c2ccc(CCC(=O)O)cc2)n1`, the IC50 falls from 30 nM to 14 nM (2.1-fold).

Compared with `O=C(Nc1cccc(Cl)c1Cl)Nc1cc(-c2ccccc2F)nn1-c1ccc(CC(=O)N2CC[C@H](CO)C2)cc1`, `CC(C)(C)c1cc(NC(=O)Nc2cccc(Cl)c2Cl)n(-c2cccc(CC(=O)O)c2)n1` is 1.7-fold lower in IC50: 37 nM for the first, 22 nM for the second.

Going from `CN1C(=O)C(c2cccc(NC(=O)Nc3cc(C(C)(C)C)nn3-c3ccc4c(c3)CCN4)c2)C=C2C=NC=NC21` (centres undefined) to `CN1C(=O)C(c2cccc(NC(=O)Nc3cc(C(C)(C)C)nn3-c3ccc4c(c3)CCN4S(C)(=O)=O)c2)C=C2C=NC=NC21` (centres undefined), the IC50 rises from 13 nM to 28 nM (2.2-fold). The first is the more potent here.

`CC(C)(C)c1cc(NC(=O)Nc2cccc3c2C=NC3=O)n(-c2cccc(CC(N)=O)c2)n1` and `CC(O)c1cc(-n2nc(C(C)(C)C)cc2NC(=O)Nc2cccc(Cl)c2Cl)cc2ccccc12` (centres undefined) are within 1.5-fold of each other in IC50: 120 nM for the first, 150 nM for the second.

same assay, conditions: concentration not given here

Going from `Cc1ccc(NC(=O)Nc2cc(C(C)(C)C)nn2-c2cccc(CC(N)=O)c2)cc1Nc1ncccn1` to `NC(=O)Cc1cccc(-n2nc(C3CCCC3)cc2NC(=O)Nc2ccc(-c3cccc4c3C=NC4=O)cc2)c1`, the inhibition falls from 90% to 82%.

First: CC(C)(C)c1cc(NC(=O)N2=CC=C3C=CC=CC3=C2)n(n1)c4cccc(CCC(=O)O)c4
Second: CC(C)(C)c1cc(NC(=O)Nc2cccc(-c3ncccn3)c2)n(-c2cccc(CC(N)=O)c2)n1
The inhibition of the first is higher: 58% for the first, 57% for the second.
